# Assay results as given in the PolyMetriX glass transition set.
# ± gives the standard deviation of the reports.
row,Structure (SMILES),glass transition temperature [°C]
1,*Oc1ccc(OC(=O)c2ccc(C(*)=O)cc2)cc1-c1cccc(C(F)(F)F)c1 (repeat unit),155.80
2,*Oc1ccc(C(c2ccc(OC(=O)Nc3ccc(Cc4ccc(NC(*)=O)cc4)cc3)cc2)(C(F)(F)F)C(F)(F)F)cc1 (repeat unit),81.00
3,*CC(C)O* (repeat unit) [Poly(propylene glycol)],-69.18 ± 2.6
4,*c1cc(CCCCCCCCCC)c(*)s1 (repeat unit),-30.00 ± 4.2
5,*Oc1ccc(S(=O)(=O)c2ccc(Oc3ccc(NC(=O)c4cccc(C(=O)Nc5ccc(*)cc5)c4)cc3)cc2)cc1 (repeat unit),260.00
6,*Oc1ccc(S(=O)(=O)c2ccc(Oc3ccc(NC(=O)c4ccc(Oc5ccc(C(C)(C)c6ccc(C(C)(C)c7ccc(Oc8ccc(C(=O)Nc9ccc(*)cc9)cc8)cc7)cc6)cc5)cc4)cc3)cc2)cc1 (repeat unit),177.00
7,*Nc1cccc(CCc2ccc(NC(=O)c3ccc(C(*)=O)cc3)cc2)c1 (repeat unit),203.00
8,*Oc1ccc(C(=O)OCCCCCOC(=O)c2ccc(*)cc2)cc1 (repeat unit),26.00
9,*Oc1ccc(C2(c3ccc(OC(*)=O)cc3C)CC3CC2C2C4CCC(C4)C32)cc1C (repeat unit),232.00
10,*CC#C/C(C#CCOC(=O)CCCCCCCCC(=O)O*)=C\c1ccc(C#Cc2ccc([N+](=O)[O-])cc2)cc1 (repeat unit),60.00
11,*Oc1ccc(NC(=O)c2ccc(NC(=O)c3ccc([Si](C)(C)c4ccc(C(=O)Nc5ccc(C(=O)Nc6ccc(*)cc6)cc5)cc4)cc3)cc2)cc1 (repeat unit),304.00
12,*Oc1ccc(C2(c3ccc(Oc4ccc(C(=O)c5c(C(=O)c6ccc(*)cc6)c(-c6ccccc6)c(-c6ccc7ccccc7c6)c(-c6ccc7ccccc7c6)c5-c5ccccc5)cc4)cc3)c3ccccc3-c3ccccc32)cc1 (repeat unit),310.00
13,*Nc1ccc(Cc2ccc(NC(=O)c3cccc(C(*)=O)c3)cc2)cc1 (repeat unit),265.00
14,*c1ccc(Oc2ccc(C(=O)c3ccc(Oc4ccc(-c5c6c(c(*)c7ccccc57)C(=O)N(c5ccccc5C(F)(F)F)C6=O)cc4)cc3)cc2)cc1 (repeat unit),260.00
15,*Oc1cccc(Oc2cccc(NC(=O)c3cccc(Oc4cccc(Oc5cccc(C(=O)Nc6cccc(*)c6)c5)c4)c3)c2)c1 (repeat unit),137.50
16,*c1ccc(Oc2ccc(C3(c4ccc(Oc5ccc(N6C(=O)c7ccc(Oc8c(C)cc(C(C)(C)c9cc(C)c(Oc%10ccc%11c(c%10)C(=O)N(*)C%11=O)c(C)c9)cc8C)cc7C6=O)cc5)cc4)CC4CCC3C4)cc2)cc1 (repeat unit),265.00
17,*CCCCCCNC(=O)C(=O)N* (repeat unit),250.00
18,*c1ccc2c(c1)C(=O)N(c1ccc(Oc3ccc(N4C(=O)c5ccc(C(F)(F)C(F)(F)C(F)(F)C(F)(F)C(F)(F)C(F)(F)C(F)(F)C(*)(F)F)cc5C4=O)cc3)cc1)C2=O (repeat unit),186.00
19,*Oc1ccccc1C(=O)OC(=O)c1ccccc1OC(=O)CCCC(*)=O (repeat unit),50.00
20,*Oc1ccc(C(C)(C)c2ccc(OC(=O)NC(=O)c3cc(C(=O)NC(*)=O)cc(C(C)(C)C)c3)cc2)cc1 (repeat unit),123.50
21,*N(CCC)[Si](C)(C)C[Si](*)(C)C (repeat unit),-20.00
22,*CCN(CCOC(=O)NCC1(C)CC(NC(=O)O*)CC(C)(C)C1)c1ccc(/N=N/c2ccc(C#N)cc2)cc1 (repeat unit),136.00
23,*C1CC2CC1C(*)C2CCCC (repeat unit),235.00
24,*CC(*)SCC (repeat unit),-7.00
25,*c1ccc(N(c2ccc(C#N)cc2)c2ccc(N3C(=O)c4ccc(-c5ccc6c(c5)C(=O)N(*)C6=O)cc4C3=O)cc2)cc1 (repeat unit),358.00
